Publication PMC10950204 (Journal of medicinal chemistry, 2024)
Read-outs that look alike come from different tables or passages of the source.

Tests used:
MCF7 = experiment: MTS-based cytotoxicity assay; format: cell-based, human
P. falciparum 3D7 = experiment: SYBR Green I-based proliferation assay, ring stage parasites; conditions: read-out: Antiplasmodial Activity 3D7 EC50, 72 h
P. falciparum Dd2 [1] = experiment: as above; conditions: for fold loss of antiplasmodial potency: relative to compound 1; for further decrease in the potency: on removing the nitrogen from pyridine / thiophenylpyridine
HepG2 = experiment: MTS-based cytotoxicity assay; format: cell-based, human
[2] = In vitro metabolic stability in mouse liver microsomes; format: in vitro ADME
[3] = test system: panel of 468 kinases (403 nonmutant kinases); experiment: KINOMEscan Profiling Service, binding at 1 μM; design: species or system human; conditions: screened at 1 μM
[4] = test system: P. falciparum strains 3D7, IPC 5188, IPC 5202, IPC 6261; experiment: EC50 determination in artemisinin and piperaquine resistant isolates; conditions: all strains, Figure 4C
P. falciparum Dd2 [5] = experiment: SYBR Green I-based proliferation assay, asynchronous blood stage cultures; conditions: compared to compound 5, Dd2
Caco-2 cells = experiment: Caco-2 permeability; format: in vitro ADME; conditions: Table S1, Caco-2
[6] = test system: P. falciparum strains 3D7, IPC 5188, IPC 5202, IPC 6261; experiment: Piperaquine survival assay; conditions: 10 × EC50 for 48 h, regardless of strain
[7] = Kinetic solubility, miniaturized shake-flask method; format: physicochemical; conditions: Table S1, 1× PBS pH 7.4
P. falciparum Dd2-B2 = experiment: Minimum inoculum of resistance; format: cell-based; conditions: 3 × EC10, monitored 50 days
[8] = test system: P. falciparum strains 3D7, IPC 5188, IPC 5202, IPC 6261; experiment: Ring stage survival assay; conditions: 10 × EC50 for 6 h, survival at 72 h, all strains
Synchronized Dd2 culture = experiment: Stage specific assay, YOYO-1 flow cytometry and microscopy; format: cell-based, P. falciparum
human EphA2 = human EphA2 (Homo sapiens, UniProt P29317); experiment: SelectScreen kinase profiling, in vitro FRET-based assay; format: biochemical; conditions: compared to compound 5
human EphA2, sequence (P29317 24-976): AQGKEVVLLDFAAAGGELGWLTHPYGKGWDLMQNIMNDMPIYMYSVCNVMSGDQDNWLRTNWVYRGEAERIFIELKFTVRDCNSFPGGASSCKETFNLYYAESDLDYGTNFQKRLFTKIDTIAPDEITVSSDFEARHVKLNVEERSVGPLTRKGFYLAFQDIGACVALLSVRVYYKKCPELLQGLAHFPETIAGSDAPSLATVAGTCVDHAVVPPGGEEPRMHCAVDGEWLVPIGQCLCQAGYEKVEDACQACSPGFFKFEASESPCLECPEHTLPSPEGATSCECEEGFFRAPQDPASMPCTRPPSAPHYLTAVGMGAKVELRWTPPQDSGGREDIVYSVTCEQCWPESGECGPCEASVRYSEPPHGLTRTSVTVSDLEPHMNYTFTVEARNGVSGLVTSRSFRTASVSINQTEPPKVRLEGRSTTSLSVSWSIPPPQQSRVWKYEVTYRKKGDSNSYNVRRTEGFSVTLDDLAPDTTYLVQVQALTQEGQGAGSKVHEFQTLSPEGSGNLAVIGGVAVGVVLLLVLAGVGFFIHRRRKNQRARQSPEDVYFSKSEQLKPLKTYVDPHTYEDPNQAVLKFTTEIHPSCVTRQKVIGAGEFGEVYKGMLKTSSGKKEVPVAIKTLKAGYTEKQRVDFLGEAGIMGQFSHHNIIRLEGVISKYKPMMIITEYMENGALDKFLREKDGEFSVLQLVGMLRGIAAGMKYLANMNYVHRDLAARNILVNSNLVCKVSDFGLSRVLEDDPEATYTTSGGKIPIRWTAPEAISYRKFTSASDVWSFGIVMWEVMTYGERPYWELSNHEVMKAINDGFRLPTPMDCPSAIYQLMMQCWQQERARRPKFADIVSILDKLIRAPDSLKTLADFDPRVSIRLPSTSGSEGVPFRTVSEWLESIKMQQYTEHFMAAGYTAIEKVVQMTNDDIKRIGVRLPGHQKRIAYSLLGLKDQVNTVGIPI

[9] = test system: P. falciparum lines AcAS A597 V, CARL I1139K, PI4K S1320L; experiment: Cross resistance evaluation, SYBR Green I assay; format: cell-based; conditions: PI4K mutant lines
[10] = test system: P. falciparum 3D7 blood-stage parasites; experiment: Parasite reduction ratio; conditions: 10 × EC50, ring stage
[11] = test system: asynchronous Dd2 cultures; experiment: Rate of killing assay, flow cytometry-based; conditions: 10 × EC50 for as little as 12 h, washed, monitored 4 days
[12] = cited from earlier work
ring stage = conditions: read-out: ring stage EC50; cited from earlier work

Compound: 3-Amino-N-(4-((4-ethylpiperazin-1-yl)methyl)-3-(trifluoromethyl)phenyl)-5-methylbenzamide [Compound 28]
- EC50 (MCF7): 5220 ± 517 nM
- Selectivity Index (SI) MCF7 (MCF7; MCF7 EC50/P. falciparum Dd2 EC50): 14
- EC50 (P. falciparum 3D7): 235 ± 34 nM
- Resistance Index (RI) (P. falciparum Dd2 [1]; P. falciparum Dd2 EC50/P. falciparum 3D7 EC50): 1.6
- EC50 (P. falciparum Dd2 [1]; read-out: Antiplasmodial Activity Dd2 EC50, ring stage parasites, 72 h): 372 ± 37 nM
- fold loss of antiplasmodial potency (P. falciparum Dd2 [1]): 6 fold
- EC50 (HepG2): 3200 ± 238 nM
- Selectivity Index (SI) HepG2 (HepG2; HepG2 EC50/P. falciparum Dd2 EC50): 8.6

Compound: CCN1CCN(Cc2ccc(NC(=O)c3cc(Cl)cc(NC(=O)c4cncc(-c5cccs5)c4)c3)cc2C(F)(F)F)CC1 [Compound 1, N-(3-Chloro-5-((4-((4-ethylpiperazin-1-yl)methyl)-3-(trifluoromethyl)phenyl)carbamoyl)phenyl)-5-(thiophen-2-yl)nicotinamide]
- microsomal stability and clearance [2]: suitable microsomal stability and low clearance
- S (10) selectivity score [3]: 0.035
- EC50 values [4]: low nanomolar range
- fold increase in antiplasmodial activity (P. falciparum Dd2 [5]): over 48 fold
- cell permeability (Caco-2 cells): poor
- survival in piperaquine survival assay [6]: did not survive the 48 h treatment
- solubility [7]: poor
- parasite recovery under continuous treatment (P. falciparum Dd2-B2): failed to recover within 50 days
- ring stage survival [8]: notably higher than that of the DHA-treated cultures
- stage specific effect (Synchronized Dd2 culture; 5 × EC50 added at 6 HPI): parasites seemed to remain stunted in the ring stage
- stage specific effect (Synchronized Dd2 culture; 5 × EC50 added at 42 HPI): the effect was much less pronounced
- stage specific effect (Synchronized Dd2 culture; 5 × EC50 applied at both 18 and 30 HPI): there was a delayed shift, and parasites were clearly malformed
- fold reduction in human EphA2 activity (human EphA2): ~900 fold
- cross-resistance, EC50 among resistant lines [9]: no difference
- 99.9% parasite clearance time (PCT) [10]: less than 32 h
- lag phase [10]: no lag phase detected
- parasite recovery after treatment [11]: failed to recover within 4 days

Compound: CCN1CCN(Cc2ccc(NC(=O)c3cc(Cl)cc(NC(=O)c4cccnc4)c3)cc2C(F)(F)F)CC1 [Compound 6, N-(3-Chloro-5-((4-((4-ethylpiperazin-1-yl)methyl)-3-(trifluoromethyl)phenyl)carbamoyl)phenyl)nicotinamide]
- microsomal stability and clearance [2]: metabolized rapidly
- fold loss of antiplasmodial potency (P. falciparum Dd2 [1]): 3 fold

Compound: CCN1CCN(Cc2ccc(NC(=O)c3cc(Cl)cc(NC(=O)c4ccccc4)c3)cc2C(F)(F)F)CC1 [Compound 8, 3-Benzamido-5-chloro-N-(4-((4-ethylpiperazin-1-yl)-methyl)-3-(trifluoromethyl)phenyl)benzamide]
- further decrease in the potency (P. falciparum Dd2 [1]): 4- to 5 fold

Compound: CCN1CCN(Cc2ccc(NC(=O)c3cc(Cl)cc(NC(=O)c4cccc(-c5cccs5)c4)c3)cc2C(F)(F)F)CC1 [Compound 9, 3-Chloro-N-(4-((4-ethylpiperazin-1-yl)methyl)-3-(trifluoromethyl)phenyl)-5-(3-(thiophen-2-yl)benzamido)-benzamide]
- further decrease in the potency (P. falciparum Dd2 [1]): 4- to 5 fold

Compound: CCN1CCN(Cc2ccc(NC(=O)c3cc(Cl)cc(NC(=O)c4cncc(-c5ccc(C#N)cc5)c4)c3)cc2C(F)(F)F)CC1 [Compound 16, N-(3-Chloro-5-((4-((4-ethylpiperazin-1-yl)methyl)-3-(trifluoromethyl)phenyl)carbamoyl)phenyl)-5-(4-cyanophenyl)nicotinamide]
- EC50 values [4]: low nanomolar range
- survival in piperaquine survival assay [6]: did not survive the 48 h treatment
- ring stage survival [8]: notably higher than that of the DHA-treated cultures
- 99.9% parasite clearance time (PCT) [10]: less than 32 h
- lag phase [10]: no lag phase detected

Compound: CCN1CCN(Cc2ccc(NC(=O)c3cc(Cl)cc(Nc4cncc(-c5cccs5)c4)c3)cc2C(F)(F)F)CC1 [Compound 17, 3-Chloro-N-(4-((4-ethylpiperazin-1-yl)methyl)-3-(trifluoromethyl)phenyl)-5-((5-(thiophen-2-yl)pyridin-3-yl)-amino)benzamide]
- fold loss of antiplasmodial potency (P. falciparum Dd2 [1]): 6 fold

Compound: CCN1CCN(Cc2ccc(NC(=O)c3cc(Cl)cc(NCc4cncc(-c5cccs5)c4)c3)cc2C(F)(F)F)CC1 [Compound 18, 3-Chloro-N-(4-((4-ethylpiperazin-1-yl)methyl)-3-(trifluoromethyl)phenyl)-5-(((5-(thiophen-2-yl)pyridin-3-yl)-methyl)amino)benzamide]
- fold loss of antiplasmodial potency (P. falciparum Dd2 [1]): 6 fold

Compound: CCN1CCN(Cc2ccc(NC(=O)c3cc(Cl)cc(NC(=O)c4cncc(-c5cccs5)c4)c3)cc2)CC1 [Compound 22, N-(3-Chloro-5-((4-((4-ethylpiperazin-1-yl)methyl)phenyl)-carbamoyl)phenyl)-5-(thiophen-2-yl)nicotinamide]
- microsomal stability and clearance [2]: suitable microsomal stability and low clearance

Compound: O=C(Nc1ccnc(N2CCOCC2)c1)c1cc(Cl)cc(NC(=O)c2cncc(-c3cccs3)c2)c1 [Compound 23, N-(3-Chloro-5-((2-morpholinopyridin-4-yl)carbamoyl)-phenyl)-5-(thiophen-2-yl)nicotinamide]
- fold loss of antiplasmodial potency (P. falciparum Dd2 [1]): 13 fold

Compound: CCN1CCN(Cc2ccc(NC(=O)c3cc(NC(=O)c4cncc(-c5cccs5)c4)ccc3F)cc2C(F)(F)F)CC1 [Compound 26, N-(3-((4-((4-Ethylpiperazin-1-yl)methyl)-3-(trifluoromethyl)phenyl)carbamoyl)-4-fluorophenyl)-5-(thiophen-2-yl)nicotinamide]
- EC50 (P. falciparum Dd2 [1]; Plasmodium falciparum, DD2, 72 h, read-out: Antiplasmodial Activity Dd2 EC50 (nM), ring stage parasites, 72 h): 867 nM

Compound: CCN1CCN(Cc2ccc(NC(=O)c3cncc(NC(=O)c4cncc(-c5cccs5)c4)c3)cc2C(F)(F)F)CC1 [Compound 30, N-(4-((4-Ethylpiperazin-1-yl)methyl)-3-(trifluoromethyl)-phenyl)-5-(5-(thiophen-2-yl)nicotinamido)nicotinamide]
- microsomal stability and clearance [2]: metabolized rapidly
- improvement in both potency and selectivity (P. falciparum Dd2 [1]; compound 30 relative to compound 29): more than 7 fold

Compound: CCN1CCN(Cc2ccc(NC(=O)c3cc(Br)cc(NC(=O)c4cncc(-c5cccs5)c4)c3)cc2C(F)(F)F)CC1 [Compound 32, N-(3-Bromo-5-((4-((4-ethylpiperazin-1-yl)methyl)-3-(trifluoromethyl)phenyl)carbamoyl)phenyl)-5-(thiophen-2-yl)nicotinamide]
- microsomal stability and clearance [2]: suitable microsomal stability and low clearance

Compound: CCN1CCN(Cc2ccc(NC(=O)c3cc(NC(=O)c4cncc(-c5cccs5)c4)cc(C(F)(F)F)c3)cc2C(F)(F)F)CC1 [Compound 33, N-(3-((4-((4-Ethylpiperazin-1-yl)methyl)-3-(trifluoromethyl)phenyl)carbamoyl)-5-(trifluoromethyl)-phenyl)-5-(thiophen-2-yl)nicotinamide]
- microsomal stability and clearance [2]: suitable microsomal stability and low clearance

Compound: CC1(C)c2nc(-c3ccc(F)cc3)c(Nc3ccc(Cl)cc3)n2CCN1C(=O)CN [GNF179]
- half-life [12]: 8.9 h

Compound: Cc1cn(-c2cc(NC(=O)c3ccc(C)c(Nc4nccc(-c5cccnc5)n4)c3)cc(C(F)(F)F)c2)cn1 [nilotinib]
- EC50 (ring stage): < 1000 nM
